In patent publication US11464786B2, “CXCR7 inhibitors for the treatment of cancer” (CHEMOCENTRYX, INC., priority 2018, dated 2022):

Key:
Frs2β (+/+) CAFs = test: Migration (mobilization) of CAFs in co-culture; assay type: cell-based, mouse; details: single inhibitor alone, 100 μg/ml; data not shown
Protocol: FIG. 4A-I CXCL12 produced from precancerous Frs2β (+/+) mammary cells induce tumor spheres and migration of CAFs. (A) Schematic of co-culture of Frs2β (+/+) tumor cells to form spheres in the lower chamber with Frs2β (+/+) precancerous mammary epithelial cells in the upper chamber. (B) Representative images of tumor sphere formation in the presence of Frs2β (+/+) mammary epithelial cells treated with control IgG (400 nM) or IGF1 neutralizing antibody (Nab) (400 nM). N.T., not treated (without co-culture with mammary epithelial cells). Scale bar: 100 ∝μ. (C) Quantification of tumor sphere-forming efficiency. Results are shown as means±SEM. n=4. ***p<0.001, **p<0.01. (D) Schematic of co-culture of Frs2β (+/+) or Frs2β (−/−) mammary cells in the lower chamber with Frs2β (+/+) or Frs2β (−/−) CAFs in the upper chamber. (E) Expression levels of Cxcl12 was compared between Frs2β (+/+) or Frs2β (−/−) mammary cells on the […] by qPCR. Results were shown as mean±SEM. n=6. * * *p<0.001. (F) Representative images of migrated Frs2β (+/+) CAFs co-cultured with Frs2β (+/+) or Frs2β (−/−) mammary cells in the […] for 24 hours. (G) Quantification of migrated Frs2β (+/+) CAFs. Results were shown as mean±SEM. n=4. **p<0.01. […] (I) Quantification of the migrated CAFs co-cultured with Frs2β (+/+) cancer cells for 24 hr. […]

[1] = system: Frs2β (+/+) precancerous mammary epithelial cells; test: qPCR of NFkB target gene expression in cultured precancerous mammary epithelial cells; assay type: cell-based, mouse; details: in vitro, dose-dependent
Description: (§1) FIG. 5A-K FRS2β-dependent increase in activation of AKT-NFκB increases the production of IGF1 and CXCL12, promoting tumorigenesis. (A) Schematic of DHMEQ treatment of cultured Frs2β (+/+) precancerous mammary epithelial cells in vitro. (B) Expression levels of Igf1, Cxcl12, and IκBα in Frs2β (+/+) precancerous mammary epithelial cells treated with the indicated concentration of DHMEQ were compared by qPCR. Results are shown as means±SEM. n=4. **p<0.01. (C) Immunoblotting analysis of the indicated proteins in the lysate of Frs2β (+/+) or Frs2β (−/−) precancerous mammary tissues. Actin was used as a loading control. (D) Immunoblotting analysis of cytoplasmic and nuclear expression levels of the indicated proteins (control as a nuclear protein) in the lysate of Frs2β (+/+) or Frs2β (−/−) mammary tissues. PARP1 was used as a representative protein in nucleus. Actin was used as a loading control. (E) Immunoblotting analysis of the indicated proteins in the lysate of Frs2β (+/+) or Frs2β (−/−) mammary tissues. Actin was used as a loading control. (F) Schematic of DHMEQ treatment of Frs2β (+/+) mice in vivo. The mice were intraperitoneally injected with 10 μg/g DHMEQ once a day for 3 weeks. (G) Immunohistochemical staining for Frs2β (+/+) mammary tissues with or without 3-week treatment with 10 μg/g DHMEQ, or Frs2β (−/−) mammary tissues, using antibodies against RelA. Scale bar: 50 ∝μ. (H) Expression levels of Igf1 and Cxcl12 in Frs2β (+/+) mammary tissues, with or without 3-week treatment with 10 μg/g DHMEQ. N.T., not treated. Results are shown as means±SEM. n=4. ***p<0.001 and **p<0.01 (I) Treatment of mice with a CXCR7 inhibitor and/or an IGF1 antibody reduces tumor volume. Frs2β (+/+) tumor sphere cells were inoculated into mammary fat pads of 8-week-old virgin female MMTV-neu (+)/Frs2β (+/+) mice. After 7 days, the mice were intraperitoneally injected with 0.1 μg/g IGF1 antibody (R&D Biosystems) once per week and/or 1 μg/g of AMD3100 (Sigma) one a day and 1.5 μg/g of Compound 1 once a day. […] Tumor volumes (J) and weights (K) were measured in mice treated as in (I). […]

Frs2β (+/+) mice = test: DHMEQ treatment in vivo: RelA localization and cytokine transcripts in precancerous mammary tissues; parameters: species or system mouse; details: 10 μg/g intraperitoneally once a day for 3 weeks
Description: as §1

| SMILES | mobilization of CAFs (Frs2β (+/+) CAFs) | expression of Cxcl12 [1] | expression of Igf1 [1] | expression of IkBa [1] | expression of Cxcl12 transcripts in precancerous mammary tissues (Frs2β (+/+) mice) | expression of Igf1 transcripts in precancerous mammary tissues (Frs2β (+/+) mice) | number of Frs2β (+/+) precancerous luminal cells harboring RelA in the nucleus (Frs2β (+/+) mice; immunohistochemistry) |
| --- | --- | --- | --- | --- | --- | --- | --- |
| c1cc(CN2CCCNCCNCCCNCC2)ccc1CN1CCCNCCNCCCNCC1 [AMD3100] | did not observe significant effects |  |  |  |  |  |  |
| CC(C)c1cc(N2CCCN(Cc3csc(-c4ccccc4)n3)CC2)c2ncccc2c1 [Compound 1] | did not observe significant effects |  |  |  |  |  |  |
| O=C(NC1=CC(=O)[C@H]2O[C@H]2[C@H]1O)c1ccccc1O [DHMEQ] |  | inhibited | inhibited | inhibited | inhibited | inhibited | dramatically decreased |
